According to patent US20180170983A1, “New Use of Cell-Permeable Peptide Inhibitors of the JNK Signal Transduction Pathway for the Treatment of Mild Cognitive Impairment” (Xigen Inflammation Ltd., priority 2015, published 2018):
Blank lines part the entries; values can stand above or below the compound they belong to. Square brackets hold non-standard residues; d marks the D form. Ends that are not written are not given here.

Tests used:
hippocampal CA1 neurons = settings: in vivo, transient global ischemia; cited from earlier work
[1] = system: primary embryonic cultures and differentiated PC12 cells; settings: at dosages that inhibit activation of JNKs; after trophic withdrawal and in mice treated with 1-methyl-4-phenyl tetrahydropyridine; cited from earlier work
[2] = system: cultured chick embryonic dorsal root ganglion, sympathetic, ciliary and motor neurons; settings: cited from earlier work
βTC-3 cell cultures = assay: Cellular import of fluorescein-labeled TAT and TAT-IB1(s) peptides; assay type: cell-based; settings: for entry of fluorescein labeled peptide into cells: labeled peptides (1 PM), BSA 1 μM, βTC-3 cells
Procedure: The ability of the L- and D-enantiomeric forms of TAT and TAT-IB(s) peptides (“TAT-IB peptides”) to enter cells was evaluated. L-TAT, D-TAT, L-TAT-IB1(s), and D-TAT-IB1(s) peptides [SEQ ID NOs: 5, 6, 9 and 12, respectively] were labeled by N-terminal addition of a glycine residue conjugated to fluorescein. Labeled peptides (1 PM) were added to βTC-3 cell cultures, which were maintained as described in Example 3. At predetermined times cells were washed with PBS and fixed for five minutes in ice-cold methanol-acetone (1:1) before being examined under a fluorescence microscope. Fluorescein-labeled BSA (1 μM, 12 moles/mole BSA) was used as a control.
Little to no signal was present at 48 hours.
Fluorescent signals from these all-D retro-inverso peptides were still very strong 1 week later, and the signal was only slightly diminished at 2 weeks post treatment.

JNK = settings: JBDs of IB1 and IB2 vs c-Jun or ATF2; cited from earlier work
βTC-3 cells = assay: IL-1β induced pancreatic beta-cell death, peptide addition; assay type: cell-based; settings: one single addition of peptide 1 μM, two days of incubation with IL-1β
Procedure: Inhibition of IL-1β induced pancreatic beta-cell death by the D-TAT-IB1(s) peptide was analyzed. βTC-3 cells were incubated as described above for 30 minutes with one single addition of the indicated peptides (1 μM), then IL-1 (10 ng/ml) was added.
Apoptotic cells were then counted after two days of incubation with IL-1β by use of Propidium Iodide and Hoechst 33342 nuclear staining. A minimum of 1,000 cells were counted for each experiment. Standard Error of the Means (SEM) are indicated, n=5.
Long term inhibition of IL-1P induced cell-death by the D-TAT-IB1 peptide was also analyzed. βTC-3 cells were incubated as above for 30 minutes with one single addition of the indicated peptides (1 μM), then […] (10 ng/ml) was added, followed by addition of the cytokine every two days. Apoptotic cells were then counted after 15 days of incubation with IL-1 by use of propidium iodide and Hoechst 33342 nuclear staining. […] A minimum of 1.000 cells were counted for each experiment.

Compound: N#CC(c1ccnc(NCCc2cccnc2)n1)c1nc2ccccc2s1 (stereo not shown) [AS601245]
protection against the delayed loss of hippocampal CA1 neurons (hippocampal CA1 neurons): provided significant protection

Compound: CCSCc1ccc2c(c1)c1c3c(c4c5cc(CSCC)ccc5n5c4c1n2[C@H]1C[C@](O)(C(=O)OC)[C@]5(C)O1)CNC3=O [CEP-1347]
neuronal survival [1]: promotes neuronal survival
long term-survival of neurons [2]: can promote long term-survival

stability inside the cells (βTC-3 cell cultures): extremely stable inside the cells
Compound: CC(C)C[C@@H](NC(=O)[C@@H](Cc1ccccc1)NC(=O)[C@H]1CCCN1C(=O)[C@@H](CCC(N)=O)NC(=O)[C@H](NC(=O)[C@H]1CCCN1C(=O)[C@@H](CCCNC(=N)N)NC(=O)[C@@H](CO)NC(=O)[C@@H](CCC(N)=O)NC(=O)[C@H](N)CC(=O)O)C(C)C)C(=O)N[C@H](CC(N)=O)C(=O)N[C@H](CC(C)C)C(=O)N[C@@H](C(=O)N[C@@H](C(=O)N1CCC[C@@H]1C(=O)N[C@H](CCCNC(=N)N)C(=O)N[C@H](CCCCN)C(=O)N1CCC[C@@H]1C(=O)N[C@H](CCCNC(=N)N)C(=O)N1CCC[C@@H]1C(=O)N1CCC[C@@H]1C(=O)N[C@H](CCCNC(=N)N)C(=O)N[C@H](CCCNC(=N)N)C(=O)N[C@H](CCCNC(=N)N)C(=O)N[C@H](CCC(N)=O)C(=O)N[C@H](CCCNC(=N)N)C(=O)N[C@H](CCCNC(=N)N)C(=O)N[C@H](CCCCN)C(=O)N[C@H](CCCCN)C(=O)N[C@H](CCCNC(=N)N)C(=O)NCC(=O)O)[C@H](C)O)[C@H](C)O [XG-102]

Compound: GRKKRRQRRR (Description of sequence Peptide L-TAT (see Table 1))
entry of fluorescein labeled peptide into cells (βTC-3 cell cultures): efficiently and rapidly (less than five minutes) entered cells

Compound: GRKKRRQRRRPPRPKRPTTLNLFPQVPRSQD [L-TAT-IB1(s)]
entry of fluorescein labeled peptide into cells (βTC-3 cell cultures): efficiently and rapidly (less than five minutes) entered cells

Compound: IPSPSVEEPHKHRPTTLRLTTLGAQDS (Description of sequence Peptide IB2-long (see Table 1))
efficiency in binding JNK relative to c-Jun or ATF2 (JNK): approximately 100 fold

Compound: PGTGCGDTYRPKRPTTLNLFPQVPRSQDT (Description of sequence peptide IB1-long (see Table 1))
efficiency in binding JNK relative to c-Jun or ATF2 (JNK): approximately 100 fold

Compound: RRRQRRKKRG (D-amino acids; Description of sequence Peptide D-TAT (see Table 1); MUTAGEN (1)..(10) all amino acids are D-amino acids)
stability inside the cells (βTC-3 cell cultures): extremely stable inside the cells

Compound: TDQSRPVQPFLNLTTPRKPRYTDPPRRRQRRKKRG ([dT][dD][dQ][dS][dR][dP][dV][dQ][dP][dF][dL][dN][dL][dT][dT][dP][dR][dK][dP][dR][dY][dT][dD][dP][dP][dR][dR][dR][dQ][dR][dR][dK][dK][dR]G) [D-TAT-IB1]
IL-1 induced apoptosis (βTC-3 cells): decreased IL-1 induced apoptosis to a similar extent as L-TAT-IB peptides
